Publication PMC12752568, “Aloe‐Emodin Targeting FOXC2 Disrupts NETs Formation and EMT‐Driven Postoperative Peritoneal Adhesion Through TGF‐β1‐Smad2/3 Pathway” (Advanced Science, 2025)
Changes are numbered by the printed parent chain.

How the values were obtained:
Assay type in all cases: binding
[1] = molecular target: T1, Forkhead box protein C2 (FOXC2) (Homo sapiens, UniProt Q99958, N127A); assay: BLI (Octet RED […], Ni-NTA sensors); KD at fit limit
T1 construct: recombinant His-tagged FOXC2 mutant 2, purified from HEK293T cells
T1 sequence (Q99958 1-501 N127A): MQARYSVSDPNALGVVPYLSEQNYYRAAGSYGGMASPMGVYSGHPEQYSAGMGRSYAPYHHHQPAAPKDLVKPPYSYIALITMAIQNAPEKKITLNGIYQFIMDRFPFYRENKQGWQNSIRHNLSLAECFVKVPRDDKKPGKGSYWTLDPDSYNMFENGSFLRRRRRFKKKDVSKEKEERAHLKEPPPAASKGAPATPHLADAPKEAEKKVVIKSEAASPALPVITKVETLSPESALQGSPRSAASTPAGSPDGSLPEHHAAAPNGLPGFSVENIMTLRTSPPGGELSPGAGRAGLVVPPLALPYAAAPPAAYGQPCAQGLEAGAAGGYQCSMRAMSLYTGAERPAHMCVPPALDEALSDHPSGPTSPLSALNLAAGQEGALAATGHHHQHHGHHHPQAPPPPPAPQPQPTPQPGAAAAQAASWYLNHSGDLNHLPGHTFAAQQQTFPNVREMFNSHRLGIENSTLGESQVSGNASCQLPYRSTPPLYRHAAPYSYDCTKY

[2] = molecular target: T2, Forkhead box protein C2 (FOXC2) (Homo sapiens, UniProt Q99958, S125A); assay: BLI (Octet RED […], Ni-NTA sensors)
T2 construct: recombinant His-tagged FOXC2 mutant 1, purified from HEK293T cells
T2 sequence (Q99958 1-501 S125A): T1 sequence (Q99958 1-501 N127A) with S125A, A127N

[3] = molecular target: T3, Forkhead box protein C2 (FOXC2) (Homo sapiens, UniProt Q99958); assay: BLI (Octet RED […], Ni-NTA sensors); supported by AE-bead competitive pull-down from PMCs
T3 construct: recombinant His-tagged FOXC2 (WT), purified from HEK293T cells
T3 sequence (Q99958 1-501): T1 sequence (Q99958 1-501 N127A) with A127N

Structure (SMILES): O=C1c2cccc(O)c2C(=O)c2c(O)cc(CO)cc21 [AE, 1,8‐dihydroxy‐3‐hydroxymethyl‐anthraquinone]
- Kd [1]: < 1 pM
- Kd [2]: 13.3 µM
- Kd [3]: 8.25 µM
